Measurements: patent US20090131528A1, “SALT” (priority 2006, published 2009)
Where a name gives a salt, the structure may show the parent alone.

Key:
[1] = 1-Week Chemical Stability Test, total impurities by HPLC-UV 230 nm; format: physicochemical
Text: (§1) The exceptional stability of the nitrate salt of aliskiren towards water may also be shown in stability tests.

[2] = Hygroscopicity, general statement; format: physicochemical
[3] = physchem
Text: The active ingredient aliskiren is the free base which is described specifically in EP 678503 A and it has one basic group, the amino group in position 5. […] Accordingly, one acidic group can bind to the nitrogen lone pairs of the amino group.

[4] = Dynamic vapour sorption (DVS-1), isothermal water absorption or loss; format: physicochemical; conditions: for Change in Mass (%) Desorption / Change in Mass (%) Sorption: 25° C., 2 hours after equilibration
Text: A clear characterisation of this property is achieved by means of isothermal measurements over predetermined time intervals and predetermined relative humidity using dynamic vapour sorption (DVS-1 from the company Surface Measurement Systems LTD, Marlow, Buckinghamshire, UK). […] The measurement error of this sorption method based on thermogravimetry is about 0.1%.

[5] = Stability test towards water, water content on storage; format: physicochemical; conditions: open container and sealed ampoule, four weeks at 40° C. and 75% relative humidity
Text: as §1

Q: For `COCCCOc1cc(C[C@@H](C[C@H](N)[C@@H](O)C[C@H](C(=O)NCC(C)(C)C(N)=O)C(C)C)C(C)C)ccc1OC` [HemiFumarate], which “Total Impurities (HPLC-UV, 230 nm), %” value ([1]; 1 week, 50 C. sealed) is on record?
A: 1.1%

Q: What about the “Total Impurities (HPLC-UV, 230 nm), %” value ([1]; 1 week, 50 C./75% RH) of the same molecule?
A: 9.3%

Q: What about the “Total Impurities (HPLC-UV, 230 nm), %” value ([1]; 1 week, 80 C. sealed) of the same molecule?
A: 18.1%

Q: And the “Total Impurities (HPLC-UV, 230 nm), %” value ([1]; 1 week, 80 C./75% RH)?
A: 64.3%

Q: And the “Total Impurities (HPLC-UV, 230 nm), %” value ([1]; Unstressed)?
A: 1.1%

Q: What does the source list for `COCCCOc1cc(C[C@@H](C[C@H](N)[C@@H](O)C[C@H](C(=O)NCC(C)(C)C(N)=O)C(C)C)C(C)C)ccc1OC` [aliskiren, 2(S),4(S),5(S),7(S)—N-(3-amino-2,2-dimethyl-3-oxopropyl)-2,7-di(1-methylethyl)-4-hydroxy-5-amino-8-[4-methoxy-3-(3-methoxy-propoxy)phenyl]-octanamide]?
A: hygroscopicity [2]: highly hygroscopic; pKa [3]: 9.79

Q: For `COCCCOc1cc(C[C@@H](C[C@H](N)[C@@H](O)C[C@H](C(=O)NCC(C)(C)C(N)=O)C(C)C)C(C)C)ccc1OC` [nitrate salt of aliskiren], which “water absorption or loss” value ([4]; DVS conditions employed, measurement error about 0.1%) is on record?
A: no measurable water absorption or loss

Q: And the hygroscopicity ([4]; DVS, up to 95% RH)?
A: non-hygroscopic

Q: What about the moisture uptake ([4]; at 95% RH) of the same molecule?
A: 0.3%

Q: What about the “Change in Mass (%) Desorption” value ([4]; relative humidity 0%) of the same molecule?
A: −0.0060%

Q: And the “Change in Mass (%) Sorption” value ([4]; relative humidity 0%, 39.4 mg sample)?
A: 0.0001%

Q: What about the “Change in Mass (%) Desorption” value ([4]; relative humidity 25%) of the same molecule?
A: 0.0326%

Q: And the “Change in Mass (%) Sorption” value ([4]; relative humidity 25%)?
A: 0.0269%

Q: What about the “Change in Mass (%) Desorption” value ([4]; relative humidity 50%) of the same molecule?
A: 0.0842%

Q: What about the “Change in Mass (%) Sorption” value ([4]; relative humidity 50%) of the same molecule?
A: 0.0821%

Q: And the “Change in Mass (%) Desorption” value ([4]; relative humidity 75%)?
A: 0.1495%

Q: What about the “Change in Mass (%) Sorption” value ([4]; relative humidity 75%) of the same molecule?
A: 0.1425%

Q: And the “Change in Mass (%) Desorption” value ([4]; relative humidity 85%)?
A: 0.1938%

Q: And the “Change in Mass (%) Sorption” value ([4]; relative humidity 85%)?
A: 0.1864%

Q: And the “Change in Mass (%) Desorption” value ([4]; relative humidity 95%)?
A: 0.3091%

Q: And the “Change in Mass (%) Sorption” value ([4]; relative humidity 95%)?
A: 0.3091%

Q: And the “Total Impurities (HPLC-UV, 230 nm), %” value ([1]; 1 week, 50 C. sealed, listed as Nitrate)?
A: 1.0%

Q: What about the “Total Impurities (HPLC-UV, 230 nm), %” value ([1]; 1 week, 50 C./75% RH, listed as Nitrate) of the same molecule?
A: 1.0%

Q: And the “Total Impurities (HPLC-UV, 230 nm), %” value ([1]; 1 week, 80 C. sealed, listed as Nitrate)?
A: 1.0%

Q: And the “Total Impurities (HPLC-UV, 230 nm), %” value ([1]; 1 week, 80 C./75% RH, listed as Nitrate)?
A: 1.1%

Q: And the water content [5]?
A: remains constant
